Experiment [1] concerns HBV. The experiment can be described thus: Response of Patient E (chronic HBV infection) to treatment. It counts as in vivo, Hepatitis B virus. The conditions noted are these: previously treated with lamivudine. From the text: Reference herein to “decreased” or “reduced” in relation to sensitivity to ADV and/or LMV and/or FTC and/or TFV includes and encompasses a complete or substantial resistance to the nucleoside or nucleotide analog or other anti-HBV agents as well as partial resistance and includes a replication rate or replication efficiency which is more than a wild-type in the presence of a nucleoside or nucleotide analog or other anti-HBV agents. In one aspects this is conveniently measured by an increase in viral load during treatment, or alternatively, there is no substantial decrease in HBV DNA viral load from pretreatment HBV DNA levels during treatment (i.e., non-response to treatment).

In experiment [2] the test system is HBV. The conditions noted are these: 30 mg daily dose, over 12 weeks, phase II studies; cited from earlier work.
The subject of experiment [3] is HBV. The experiment can be described thus: HBV viral load in Patient A during ADV therapy. It counts as in vivo, Hepatitis B virus. To be noted: Patient A on ADV treatment. From the text:
Patient A: During ADV treatment, unique HBV mutations were detected by sequencing (Table 4). This includes the unique mutation at rtT38K, and rtA181V. A number of other changes were also detected in the polymerase rtR55H and in the overlapping envelope gene (Table 4, FIGS. 4, 5 and 6). The changes in the HBsAg include sQ30K, sE44G, sA47T, sI126T, sA159V and sL173F. These unique changes were compared to reference sequences from each of the seven genotypes A-G as well as a consensus sequence from pretreatment samples to determine unique changes
Hepatitis B surface antigen (HBsAg), hepatitis B e antigen (HBeAg), anti-HBe and hepatitis B core antigen (HBcAg) specific IgG and IgM were measured using commercially available immunoassays (Abbott Laboratories, North Chicago, Ill., USA). Hepatitis B viral DNA levels were measured using a capture hybridization assay according to the manufacturer's directions (Digene Hybrid Capture II, Digene Diagnostics Inc., Beltsville, Md.). The manufacturers stated cut-off for detecting HBV viremia in clinical specimens was 0.7×10^6 copies/ml or 2.5 pg/ml, [Hendricks et al., Am J Clin Pathol 104: 537-46, 1995]. HBV DNA levels can also be quantitated using other commercial kits such as Cobas amplification HBV monitor kit (Roche).

“Also recorded” adds a separate entry of the source. Structures can show the parent of a compound that is named as a salt.

Turning to `CC(C)OC(=O)OCOP(=O)(CO[C@H](C)Cn1cnc2c(N)ncnc21)OCOC(=O)OC(C)C` [TFV, tenofovir disoproxil fumarate], in experiment [1], the response to treatment entry was “responded”.
With `CC(C)(C)C(=O)OCOP(=O)(COCCn1cnc2c(N)ncnc21)OCOC(=O)C(C)(C)C` [ADV, adefovir dipivoxil], the “mean decrease in viremia” value in experiment [2] is given as 4 log10. For the same compound, the HBV viral load in experiment [3] (8 Jul. 2003) came to 7.92E+07; in experiment [3] (14 Jan. 2003) it was 1.21E+09; in experiment [3] (22 Oct. 2002) it was 8.77E+06. The response to treatment entry in experiment [1] is on record as “did not respond; also recorded: nonresponder”.

Values taken from US8008000B2, “Viral variants detection and application” (priority 2003, dated 2011).
